Source: patent publication US20230121689A1, “CEPHALOSPORIN ANTIBACTERIAL COMPOUND AND PHARMACEUTICAL APPLICATION THEREOF” (priority 2020, published 2023)
≈ marks a conversion by molar mass, not a printed value. Read-outs that look alike come from different tables or passages of the source.

Experiments:
Assay type in all cases: cell-based
[1] = system: Carbapenem-resistant Acinetobacter baumannii (CRAB, Acinetobacter baumannii); test: Test Example 2: antibacterial activity test (MIC)
Experimental: (§1) 1. The test compounds were dissolved in sterile normal saline, vortexed for uniformly mixing, and diluted in a 2-fold dilution with the sterile normal saline (11 concentration points in total). The test concentration range was 32-0.031 μg/mL, and two duplicate wells were set for each concentration. Additional wells without drug dosing were set as growth controls. 2. 4 μL of the diluent was added to 196 μL of the bacterial suspension in a 96-well plate (the bacterial count in the bacterial suspension was 2-8×10^5 colony forming units/mL). 3.
(§2) The minimum inhibitory concentration (MIC) assay was performed with reference to the Clinical and Laboratory Standards Institute (CLSI) guidelines.

[2] = system: Carbapenem-resistant Enterobacteriaceae (CRE, Klebsiella pneumoniae); test: Test Example 2: antibacterial activity test (MIC)
Experimental: as §1, §2

[3] = system: Carbapenem-resistant Pseudomonas aeruginosa (CRPA, Pseudomonas aeruginosa); test: Test Example 2: antibacterial activity test (MIC)
Experimental: as §1, §2

[4] = system: Control Strain Pseudomonas aeruginosa ATCC 27853; test: Test Example 2: antibacterial activity test (MIC)
Experimental: as §1, §2

[5] = system: Control strain Escherichia coli ATCC 25922; test: Test Example 2: antibacterial activity test (MIC)
Experimental: as §1, §2

[6] = system: Carbapenem-resistant Acinetobacter baumannii (CRAB); test: Test Example 1: antibacterial activity test (MIC)
Experimental: (§3) The test compounds were diluted in a gradient and used for an MIC assay on the test strains. The test compounds at an initial assay concentration of 32 μg/mL were diluted in a 2-fold gradient (11 concentration points in total), and two duplicate wells were set for each concentration. Additional wells without drug dosing were set as growth controls. The minimum inhibitory concentration (MIC) assay was performed with reference to the Clinical and Laboratory Standards Institute (CLSI) guidelines.
(§4) After the frozen strains were subcultured, a single colony was picked and re-suspended in normal saline or sterile water in a tube. The bacterial suspension was vortexed and adjusted to 0.5 McF using a spectrophotometer at the wavelength of 530 nm. The bacterial solution was taken by a pipette, added to a culture medium, diluted and mixed well, and seeded to a bacterial assay plate.
(§5) The 96-well plate was affixed with a disposable sealing film, shaken and mixed well, and visually observed using a plate reader. The minimum concentration of the compounds capable of inhibiting the growth of bacteria was defined as MIC as compared to the growth controls.

[7] = system: Carbapenem-resistant Enterobacteriaceae (CRE); test: Test Example 1: antibacterial activity test (MIC)
Experimental: as §3, §4, §5

[8] = system: Carbapenem-resistant Pseudomonas aeruginosa (CRPA); test: Test Example 1: antibacterial activity test (MIC)
Experimental: as §3, §4, §5

SMILES: C[C@H](CN(CCCNC(=O)c1ccc(O)c(O)c1Cl)C(=O)c1ccc(O)c(O)c1Cl)[N+]1(CC2=C(C(=O)O)N3C(=O)[C@@H](NC(=O)/C(=N\OC(C)(C)C(=O)O)c4csc(N)n4)[C@H]3SC2)CCCC1 [Compound 11]
- MIC ([1]; read-out: ID-CAMHB, MIC, ID-CAMHB, FDA-CDC AR-BANK #0036 (strB, OXA-65, OXA-24, strA, sul2)): 0.5 µg/mL
- MIC ([1]; read-out: ID-CAMHB, MIC, ID-CAMHB, FDA-CDC AR-BANK #0052 (OXA-58, OXA-100, sul2)): 0.125 µg/mL
- MIC ([1]; read-out: ID-CAMHB, MIC, ID-CAMHB, FDA-CDC AR-BANK #0063 (OXA-23, OXA-65, OXA-24, sul2)): 4 µg/mL
- MIC ([1]; read-out: ID-CAMHB, MIC, ID-CAMHB, FDA-CDC AR-BANK #0070 (OXA-58, OXA-100, sul2)): 0.25 µg/mL
- MIC ([1]; read-out: ID-CAMHB, MIC, ID-CAMHB, FDA-CDC AR-BANK #0101 (strB, OXA-65, OXA-24, strA, sul2)): 1 µg/mL
- MIC ([2]; read-out: ID-CAMHB, MIC, ID-CAMHB, FDA-CDC AR-BANK #0361 (TEM-1; SHV-12; KPC-2)): 1 µg/mL
- MIC ([2]; read-out: ID-CAMHB, MIC, ID-CAMHB, FDA-CDC AR-BANK #0362 (TEM-1; SHV-11; KPC-2)): 0.25 µg/mL
- MIC ([2]; read-out: ID-CAMHB, MIC, ID-CAMHB, FDA-CDC AR-BANK #0363 (TEM-1; SHV-12; KPC-2)): 0.5 µg/mL
- MIC ([2]; read-out: ID-CAMHB, MIC, ID-CAMHB, FDA-CDC AR-BANK #0438 (aph(3′)-Ia, dfrA12, KPC-3, OmpK35, oqxA, oqxB, SHV-11)): 1 µg/mL
- MIC ([2]; read-out: ID-CAMHB, MIC, ID-CAMHB, FDA-CDC AR-BANK #0453 (KPC-3, OmpK35, oqxA, oqxB, SHV-11, TEM-1B)): 1 µg/mL
- MIC ([3]; read-out: ID-CAMHB, MIC, ID-CAMHB, FDA-CDC AR-BANK #0439 (aac(6′)-Il, aadA1b, BCR1, IMP-18, OXA-50)): 0.5 µg/mL
- MIC ([3]; read-out: ID-CAMHB, MIC, ID-CAMHB, FDA-CDC AR-BANK #0441 (KPC-2)): 8 µg/mL
- MIC ([3]; read-out: ID-CAMHB, MIC, ID-CAMHB, FDA-CDC AR-BANK #0444 (aac(6′)-Il, dfrB5, OXA-4, tet(G), VIM-2)): 4 µg/mL
- MIC ([3]; read-out: ID-CAMHB, MIC, ID-CAMHB, FDA-CDC AR-BANK #0457 (aadA6, VIM-2)): 0.25 µg/mL
- MIC ([4]; ATCC27853, read-out: ID-CAMHB, MIC): 0.0625 µg/mL
- MIC ([5]; ATCC25922, read-out: ID-CAMHB, MIC): 0.125 µg/mL

SMILES: C[C@@H](O)[C@H]1C(=O)N2C(C(=O)O)=C(S[C@@H]3CN[C@H](C(=O)N(C)C)C3)[C@H](C)[C@H]12 [Meropenem, reference compound]
- MIC ([6]; CRAB strain No. 100085): 32 µg/mL (≈ 83.4 µM)
- MIC ([6]; CRAB strain No. 100333): > 32 µg/mL
- MIC ([6]; CRAB strain No. 110440): 32 µg/mL (≈ 83.4 µM)
- MIC ([6]; CRAB strain No. 110477): > 32 µg/mL
- MIC ([6]; CRAB strain No. 110517): 32 µg/mL (≈ 83.4 µM)
- MIC ([7]; CRE strain No. 100109): > 32 µg/mL
- MIC ([7]; CRE strain No. 100186): > 32 µg/mL
- MIC ([7]; CRE strain No. 110502): 32 µg/mL (≈ 83.4 µM)
- MIC ([7]; CRE strain No. 110525): 32 µg/mL (≈ 83.4 µM)
- MIC ([7]; CRE strain No. 311277): 32 µg/mL (≈ 83.4 µM)
- MIC ([8]; CRPA strain No. 100110): 32 µg/mL (≈ 83.4 µM)
- MIC ([8]; CRPA strain No. 110163): 24 µg/mL (≈ 62.6 µM)
- MIC ([8]; CRPA strain No. 110224): 16 µg/mL (≈ 41.7 µM)
- MIC ([8]; CRPA strain No. 110358): 4 µg/mL (≈ 10.4 µM)
- MIC ([8]; CRPA strain No. 110390): 12 µg/mL (≈ 31.3 µM)
- MIC ([1]; CAMHB, FDA-CDC AR-BANK #0036, read-out: CAMHB MIC): > 32 µg/mL
- MIC ([1]; CAMHB, FDA-CDC AR-BANK #0052, read-out: CAMHB MIC): 16 µg/mL (≈ 41.7 µM)
- MIC ([1]; CAMHB, FDA-CDC AR-BANK #0063, read-out: CAMHB MIC): > 32 µg/mL
- MIC ([1]; CAMHB, FDA-CDC AR-BANK #0070, read-out: CAMHB MIC): 8 µg/mL (≈ 20.9 µM)
- MIC ([1]; CAMHB, FDA-CDC AR-BANK #0101, read-out: CAMHB MIC): > 32 µg/mL
- MIC ([2]; read-out: CAMHB MIC, CAMHB, FDA-CDC AR-BANK #0361): 16 µg/mL (≈ 41.7 µM)
- MIC ([2]; read-out: CAMHB MIC, CAMHB, FDA-CDC AR-BANK #0362): > 32 µg/mL
- MIC ([2]; read-out: CAMHB MIC, CAMHB, FDA-CDC AR-BANK #0363): 32 µg/mL (≈ 83.4 µM)
- MIC ([2]; read-out: CAMHB MIC, CAMHB, FDA-CDC AR-BANK #0438): > 32 µg/mL
- MIC ([2]; read-out: CAMHB MIC, CAMHB, FDA-CDC AR-BANK #0453): > 32 µg/mL
- MIC ([3]; CAMHB, FDA-CDC AR-BANK #0439, read-out: CAMHB MIC): > 32 µg/mL
- MIC ([3]; CAMHB, FDA-CDC AR-BANK #0441, read-out: CAMHB MIC): > 32 µg/mL
- MIC ([3]; CAMHB, FDA-CDC AR-BANK #0444, read-out: CAMHB MIC): > 32 µg/mL
- MIC ([3]; CAMHB, FDA-CDC AR-BANK #0457, read-out: CAMHB MIC): > 32 µg/mL
- MIC ([4]; ATCC27853, CAMHB, ATCC 27853, read-out: CAMHB MIC): 0.5 µg/mL (≈ 1.3 µM)
- MIC ([5]; ATCC25922, CAMHB, ATCC 25922, read-out: CAMHB MIC): ≤ 0.0312 µg/mL
